Experiments:
Assay in all cases: biochemical
Parameters in all cases: DiscoverX KinomeScan competition binding assay across human kinases; per cent of control at 10 and 100 uM
[1] = target: LIMK1 (Homo sapiens, UniProt P53667); details: competition binding, % of control; read-out: Percent Control (100 uM Levosimendan)
Procedure, shortened: (§1)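 KinomeScan competition binding was run across a human kinase panel at 10 μM and 100 μM levosimendan. Results are %control = (test − positive control)/(negative control − positive control) × 100.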

[2] = target: T1, YANK2 (Homo sapiens, UniProt Q9NY57); details: competition binding, % of control; read-out: Percent Control (100 uM Levosimendan)
T1 construct: gene STK32B
Procedure, shortened: as §1

[3] = target: FYN (Homo sapiens, UniProt P06241); details: competition binding, % of control
Chain of FYN (P06241 whole entry): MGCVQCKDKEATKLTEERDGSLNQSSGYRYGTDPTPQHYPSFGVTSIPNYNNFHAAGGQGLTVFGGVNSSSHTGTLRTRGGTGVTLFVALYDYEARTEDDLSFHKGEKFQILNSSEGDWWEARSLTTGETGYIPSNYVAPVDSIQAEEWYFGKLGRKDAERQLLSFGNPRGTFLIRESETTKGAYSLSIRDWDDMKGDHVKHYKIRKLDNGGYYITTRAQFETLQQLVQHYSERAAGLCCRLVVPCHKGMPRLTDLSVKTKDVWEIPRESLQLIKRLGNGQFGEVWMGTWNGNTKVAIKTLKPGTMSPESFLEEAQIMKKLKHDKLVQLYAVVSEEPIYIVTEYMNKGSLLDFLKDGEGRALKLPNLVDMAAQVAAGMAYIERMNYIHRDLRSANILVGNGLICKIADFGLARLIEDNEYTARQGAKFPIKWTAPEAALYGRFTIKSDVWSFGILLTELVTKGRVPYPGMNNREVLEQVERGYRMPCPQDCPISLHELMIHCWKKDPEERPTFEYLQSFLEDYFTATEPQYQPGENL
Procedure, shortened: as §1

[4] = target: T2, RPS6KA4(Kin.Dom.2-C-terminal) (Homo sapiens, UniProt O75676); details: competition binding, % of control; read-out: Percent Control (100 uM Levosimendan)
T2 construct: Kin.Dom.2-C-terminal
Procedure, shortened: as §1

[5] = target: FGFR3 (Homo sapiens, UniProt P22607); details: competition binding, % of control; read-out: Percent Control (100 uM Levosimendan)
Procedure, shortened: as §1

[6] = target: CSNK2A1 (Homo sapiens, UniProt P68400); details: competition binding, % of control; read-out: Percent Control (100 uM Levosimendan)
Chain of CSNK2A1 (P68400 whole entry): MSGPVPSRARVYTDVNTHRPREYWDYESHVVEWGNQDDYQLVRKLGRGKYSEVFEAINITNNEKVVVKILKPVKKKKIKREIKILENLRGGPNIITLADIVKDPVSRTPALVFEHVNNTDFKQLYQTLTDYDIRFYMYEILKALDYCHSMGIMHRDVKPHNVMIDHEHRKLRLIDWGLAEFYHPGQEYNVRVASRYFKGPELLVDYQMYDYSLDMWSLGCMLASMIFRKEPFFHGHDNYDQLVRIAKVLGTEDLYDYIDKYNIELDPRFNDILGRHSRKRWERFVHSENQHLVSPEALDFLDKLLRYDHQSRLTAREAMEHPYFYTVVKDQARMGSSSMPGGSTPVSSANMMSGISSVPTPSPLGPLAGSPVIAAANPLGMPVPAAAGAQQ
Procedure, shortened: as §1

[7] = target: T3, JNK1 (Homo sapiens, UniProt P45983); details: competition binding, % of control; read-out: Percent Control (100 uM Levosimendan)
T3 construct: gene MAPK8
T3 sequence (P45983 whole entry): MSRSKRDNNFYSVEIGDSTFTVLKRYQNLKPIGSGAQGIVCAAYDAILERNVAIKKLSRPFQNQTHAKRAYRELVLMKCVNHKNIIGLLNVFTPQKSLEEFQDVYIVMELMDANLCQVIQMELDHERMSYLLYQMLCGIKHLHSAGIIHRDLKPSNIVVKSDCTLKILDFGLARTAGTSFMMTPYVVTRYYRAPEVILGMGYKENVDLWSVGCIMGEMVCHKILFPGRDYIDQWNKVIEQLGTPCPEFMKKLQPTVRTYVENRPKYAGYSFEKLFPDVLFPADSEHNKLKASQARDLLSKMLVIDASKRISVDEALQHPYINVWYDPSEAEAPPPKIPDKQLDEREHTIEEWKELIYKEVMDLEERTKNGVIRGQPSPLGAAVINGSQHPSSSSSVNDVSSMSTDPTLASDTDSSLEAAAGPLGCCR
Procedure, shortened: as §1

[8] = target: EPHA4 (Homo sapiens, UniProt P54764); details: competition binding, % of control; read-out: Percent Control (100 uM Levosimendan)
Procedure, shortened: as §1

[9] = target: BMX (Homo sapiens, UniProt P51813); details: competition binding, % of control; read-out: Percent Control (100 uM Levosimendan)
Procedure, shortened: as §1

[10] = target: HIPK4 (Homo sapiens, UniProt Q8NE63); details: competition binding, % of control; read-out: Percent Control (100 uM Levosimendan)
Procedure, shortened: as §1

[11] = target: T4, NDR1 (Homo sapiens, UniProt Q15208); details: competition binding, % of control; read-out: Percent Control (100 uM Levosimendan)
T4 construct: gene STK38
Procedure, shortened: as §1

[12] = target: PIM3 (Homo sapiens, UniProt Q86V86); details: competition binding, % of control
Procedure, shortened: as §1

[13] = target: WNK3 (Homo sapiens, UniProt Q9BYP7); details: competition binding, % of control; read-out: Percent Control (100 uM Levosimendan)
Procedure, shortened: as §1

[14] = target: MET (Homo sapiens, UniProt P08581); details: competition binding, % of control; read-out: Percent Control (100 uM Levosimendan)
Chain of MET (P08581 whole entry): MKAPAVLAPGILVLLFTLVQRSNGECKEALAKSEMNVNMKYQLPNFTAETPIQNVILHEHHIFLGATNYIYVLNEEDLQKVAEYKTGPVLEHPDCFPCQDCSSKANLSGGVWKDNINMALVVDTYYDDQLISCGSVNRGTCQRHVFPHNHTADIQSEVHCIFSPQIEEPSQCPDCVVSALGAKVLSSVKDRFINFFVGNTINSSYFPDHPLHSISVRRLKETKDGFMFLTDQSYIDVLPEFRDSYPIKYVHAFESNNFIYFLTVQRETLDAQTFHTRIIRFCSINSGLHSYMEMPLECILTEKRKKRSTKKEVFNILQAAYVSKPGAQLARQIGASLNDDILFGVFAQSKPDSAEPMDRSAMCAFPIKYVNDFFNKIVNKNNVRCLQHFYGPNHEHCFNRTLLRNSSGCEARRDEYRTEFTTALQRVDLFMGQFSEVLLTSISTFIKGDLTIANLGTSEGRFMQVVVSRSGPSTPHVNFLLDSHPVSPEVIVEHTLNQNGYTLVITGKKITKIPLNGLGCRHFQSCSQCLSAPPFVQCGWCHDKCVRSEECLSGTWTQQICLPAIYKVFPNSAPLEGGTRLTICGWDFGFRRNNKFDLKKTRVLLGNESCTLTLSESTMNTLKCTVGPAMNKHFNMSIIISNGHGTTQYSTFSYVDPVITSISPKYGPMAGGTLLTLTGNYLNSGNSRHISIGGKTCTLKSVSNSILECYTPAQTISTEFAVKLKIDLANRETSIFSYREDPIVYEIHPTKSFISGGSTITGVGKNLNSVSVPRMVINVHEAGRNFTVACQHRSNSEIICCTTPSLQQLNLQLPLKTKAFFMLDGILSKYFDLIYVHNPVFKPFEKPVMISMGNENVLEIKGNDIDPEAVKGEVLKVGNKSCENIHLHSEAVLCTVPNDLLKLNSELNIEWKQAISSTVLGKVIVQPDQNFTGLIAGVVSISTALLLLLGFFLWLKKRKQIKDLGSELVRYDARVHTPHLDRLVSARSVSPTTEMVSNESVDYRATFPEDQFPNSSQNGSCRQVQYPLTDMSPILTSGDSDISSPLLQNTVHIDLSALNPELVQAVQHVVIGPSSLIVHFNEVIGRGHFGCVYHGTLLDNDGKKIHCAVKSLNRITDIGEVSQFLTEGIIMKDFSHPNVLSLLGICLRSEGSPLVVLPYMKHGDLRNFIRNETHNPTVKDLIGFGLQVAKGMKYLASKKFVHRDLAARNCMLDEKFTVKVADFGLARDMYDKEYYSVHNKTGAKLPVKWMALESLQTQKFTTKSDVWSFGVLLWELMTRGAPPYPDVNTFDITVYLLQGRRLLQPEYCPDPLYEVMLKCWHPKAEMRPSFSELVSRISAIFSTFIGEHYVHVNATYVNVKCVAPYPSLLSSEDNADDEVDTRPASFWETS
Procedure, shortened: as §1

[15] = target: PRKD2 (Homo sapiens, UniProt Q9BZL6); details: competition binding, % of control; read-out: Percent Control (100 uM Levosimendan)
Procedure, shortened: as §1

[16] = target: FGFR3(G697C) (Homo sapiens, UniProt P22607, G697C); details: competition binding, % of control; read-out: Percent Control (100 uM Levosimendan)
Procedure, shortened: as §1

[17] = target: TNK2 (Homo sapiens, UniProt Q07912); details: competition binding, % of control; read-out: Percent Control (100 uM Levosimendan)
Procedure, shortened: as §1

[18] = target: T5, MEK2 (Homo sapiens, UniProt P36507); details: competition binding, % of control; read-out: Percent Control (100 uM Levosimendan)
T5 construct: gene MAP2K2
T5 sequence (P36507 whole entry): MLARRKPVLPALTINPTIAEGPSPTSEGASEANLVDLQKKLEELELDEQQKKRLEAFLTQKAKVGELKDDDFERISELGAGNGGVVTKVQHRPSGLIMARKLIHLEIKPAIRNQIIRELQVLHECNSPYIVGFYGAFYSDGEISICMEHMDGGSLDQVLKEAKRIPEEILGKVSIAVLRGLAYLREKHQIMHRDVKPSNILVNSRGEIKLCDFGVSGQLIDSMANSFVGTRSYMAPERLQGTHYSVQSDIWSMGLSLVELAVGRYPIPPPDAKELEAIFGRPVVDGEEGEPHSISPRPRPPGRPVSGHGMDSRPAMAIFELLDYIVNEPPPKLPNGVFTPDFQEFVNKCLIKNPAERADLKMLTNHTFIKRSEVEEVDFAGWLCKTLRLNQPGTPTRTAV
Procedure, shortened: as §1

[19] = target: T6, MLK3 (Homo sapiens, UniProt Q16584); details: competition binding, % of control; read-out: Percent Control (100 uM Levosimendan)
T6 construct: gene MAP3K11
T6 sequence (Q16584 whole entry): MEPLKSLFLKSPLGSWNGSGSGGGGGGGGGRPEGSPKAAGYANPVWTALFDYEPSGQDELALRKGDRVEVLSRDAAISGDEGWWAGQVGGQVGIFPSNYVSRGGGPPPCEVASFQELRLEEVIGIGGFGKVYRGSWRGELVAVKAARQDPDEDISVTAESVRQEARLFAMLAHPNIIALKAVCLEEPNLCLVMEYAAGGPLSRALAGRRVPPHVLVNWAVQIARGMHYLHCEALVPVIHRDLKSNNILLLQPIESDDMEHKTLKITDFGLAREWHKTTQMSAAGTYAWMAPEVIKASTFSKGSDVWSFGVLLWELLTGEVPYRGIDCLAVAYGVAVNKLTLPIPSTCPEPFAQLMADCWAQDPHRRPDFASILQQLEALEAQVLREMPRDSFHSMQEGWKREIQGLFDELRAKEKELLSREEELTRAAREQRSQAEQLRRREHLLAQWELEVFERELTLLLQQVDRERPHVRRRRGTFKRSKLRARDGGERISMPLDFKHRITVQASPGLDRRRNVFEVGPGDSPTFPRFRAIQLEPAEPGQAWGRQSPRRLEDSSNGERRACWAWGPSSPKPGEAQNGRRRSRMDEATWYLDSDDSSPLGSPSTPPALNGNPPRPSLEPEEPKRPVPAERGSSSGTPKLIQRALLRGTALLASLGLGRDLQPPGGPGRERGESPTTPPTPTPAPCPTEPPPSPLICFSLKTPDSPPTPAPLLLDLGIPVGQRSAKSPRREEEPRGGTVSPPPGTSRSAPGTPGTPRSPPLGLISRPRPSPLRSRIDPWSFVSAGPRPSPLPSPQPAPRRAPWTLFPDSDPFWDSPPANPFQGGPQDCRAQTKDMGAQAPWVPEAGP
Procedure, shortened: as §1

[20] = read-out: Percent Control (10 uM Levosimendan)
[21] = read-out: Percent Control (100 uM Levosimendan)

Chain of LIMK1 (P53667 whole entry): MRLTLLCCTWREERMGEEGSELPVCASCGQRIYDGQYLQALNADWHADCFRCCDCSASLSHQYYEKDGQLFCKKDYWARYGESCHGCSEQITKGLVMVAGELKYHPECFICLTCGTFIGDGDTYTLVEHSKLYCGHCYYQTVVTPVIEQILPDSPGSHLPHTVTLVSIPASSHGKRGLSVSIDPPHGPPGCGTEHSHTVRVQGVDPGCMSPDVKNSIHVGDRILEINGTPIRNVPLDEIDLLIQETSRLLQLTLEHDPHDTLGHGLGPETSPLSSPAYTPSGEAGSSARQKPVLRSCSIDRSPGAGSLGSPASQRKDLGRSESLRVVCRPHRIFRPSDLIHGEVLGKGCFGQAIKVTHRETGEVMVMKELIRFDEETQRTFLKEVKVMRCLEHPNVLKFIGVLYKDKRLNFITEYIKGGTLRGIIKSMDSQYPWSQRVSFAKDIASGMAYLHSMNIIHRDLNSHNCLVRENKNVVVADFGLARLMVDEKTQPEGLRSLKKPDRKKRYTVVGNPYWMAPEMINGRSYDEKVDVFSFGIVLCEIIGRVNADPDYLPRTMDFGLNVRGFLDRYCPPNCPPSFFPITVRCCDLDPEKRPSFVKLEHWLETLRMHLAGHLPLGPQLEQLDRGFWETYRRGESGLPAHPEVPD

Compound: C[C@@H]1CC(=O)NN=C1c1ccc(NN=C(C#N)C#N)cc1 [levosimendan]
- remaining binding at 100 µM [1]: 73%
- remaining binding at 100 µM [2]: 92%
- remaining binding at 10 µM [3, 20]: 96%
- remaining binding at 100 µM [3, 21]: 47%
- remaining binding at 100 µM [4]: 95%
- remaining binding at 100 µM [5]: 71%
- remaining binding at 100 µM [6]: 100%
- remaining binding at 100 µM [7]: 71%
- remaining binding at 100 µM [8]: 82%
- remaining binding at 100 µM [9]: 77%
- remaining binding at 100 µM [10]: 84%
- remaining binding at 100 µM [11]: 62%
- remaining binding at 10 µM [12, 20]: 75%
- remaining binding at 100 µM [12, 21]: 17%
- remaining binding at 100 µM [13]: 81%
- remaining binding at 100 µM [14]: 55%
- remaining binding at 100 µM [15]: 75%
- remaining binding at 100 µM [16]: 80%
- remaining binding at 100 µM [17]: 86%
- remaining binding at 100 µM [18]: 70%
- remaining binding at 100 µM [19]: 73%

Source: PMC6576746, “Rational discovery of dual-indication multi-target PDE/Kinase inhibitor for precision anti-cancer therapy using structural systems pharmacology” (PLoS Computational Biology, 2019)
